Like-named read-outs stand apart in the source and are kept apart here.
Key:
[1] = test system: HIV-1 (Strain RF-II); assay: Antiviral activity against HIV-1 in HeLa-T4 cells (Table 4); assay type: cell-based
Description: Evaluation in Hela-T4 cells infected with HIV-1 (Strain RF-II)
HeLa-T4 cells (described in Cell 47: 333, 1986) are maintained in Dulbecco's Modified Eagle medium containing 10% inactivated fetal calf serum, penicillin (100 U/ml) and streptomycin (100 μg/ml), and the antibiotic G418 (1 mg/ml). The cells are seeded onto a 96-well plate (2×10^4 cells/well per 0.1 ml), and two days later, the supernatant is removed and the virus added. After adsorption for 45 minutes, the inoculum is removed and the cells washed with phosphate-buffered saline (pH 7.2). The compounds at different concentration are then added in maintenance medium (containing 2% serum). […] The cells are fixed with a mixture of 5% glacial acetic acid/95% Ethanol for 15 minutes, and then stained with Giemsa (20% in PSB) for 4 hours. The plates are then washed and dried. The foci are then enumerated with a dissecting stereomicroscope.

[2] = in vivo; set-up: species or system mouse; settings: mice, 250 mg/kg iv
Description: In rhesus monkeys, the pharmocokinetic parameters after an oral dose of […] of CS-87 are as follows:
^a Mice were administered the drug at a dose of 250 mg/kg iv.

[3] = Effect on weight of uninfected BALB/c mice (FIG. 3); assay type: in vivo, mouse; settings: compared with each other and control
[4] = test system: two particular enzymes isolated from L1210 cells; settings: Lin et al.; cited from earlier work

Q: Which results are given for `[N-]=[N+]=N[C@H]1C[C@H](n2ccc(=O)[nH]c2=O)O[C@@H]1CO` [CS-87, 3'-azido-2',3'-dideoxyuridine]?
A: activity compared to d2C in HeLa-T4 cells [1]: less active; EC50 ([1]; Human immunodeficiency virus 1, HeLaT4, HIV-1): 1240 nM; Ratio: % B/S ([2]; 5 min): 6.3%; Serum levels ([2]; 5 min): 125.7 µg/mL; Kp at 5 min ([2]; mouse, in vivo, iv, 250 mg/kg, 5 min, read-out: Ratio: % B/S): 0.043; concentration at 5 min ([2]; mouse, in vivo, iv, 250 mg/kg, 5 min, read-out: Serum levels): 71.3 µg/mL; concentration at 31 min ([2]; mouse, in vivo, iv, 250 mg/kg, 31 min, read-out: Brain levels): 11.1 µg/mL; Kp at 31 min ([2]; mouse, in vivo, iv, 250 mg/kg, 31 min, read-out: Ratio: % B/S): 0.122; concentration at 31 min ([2]; mouse, in vivo, iv, 250 mg/kg, 31 min, read-out: Serum levels): 91 µg/mL; concentration at 34 min ([2]; mouse, in vivo, iv, 250 mg/kg, 34 min, read-out: Brain levels): 5670 ng/mL; Kp at 34 min ([2]; mouse, in vivo, iv, 250 mg/kg, 34 min, read-out: Ratio: % B/S): 0.102; concentration at 34 min ([2]; mouse, in vivo, iv, 250 mg/kg, 34 min, read-out: Serum levels): 55500 ng/mL; concentration at 71 min ([2]; mouse, in vivo, iv, 250 mg/kg, 71 min, read-out: Brain levels): 6400 ng/mL; Kp at 71 min ([2]; mouse, in vivo, iv, 250 mg/kg, 71 min, read-out: Ratio: % B/S): 0.261; concentration at 71 min ([2]; mouse, in vivo, iv, 250 mg/kg, 71 min, read-out: Serum levels): 24500 ng/mL; concentration at 1.2 h ([2]; mouse, in vivo, iv, 250 mg/kg, 72 min, read-out: Brain levels): 7330 ng/mL; Kp at 1.2 h ([2]; mouse, in vivo, iv, 250 mg/kg, 72 min, read-out: Ratio: % B/S): 0.134; concentration at 1.2 h ([2]; mouse, in vivo, iv, 250 mg/kg, 72 min, read-out: Serum levels): 54800 ng/mL; effect on weight of uninfected BALB/c mice [3]: no significant difference; inhibitory activity towards two particular enzymes isolated from L1210 cells [4]: only marginal inhibitory activity
